Assay: Dispersibility of FITC-DEX-encapsulated S/W with additives
Assay type: physicochemical
Conditions: additive 125 mg/mL in aqueous phase of S/O/W emulsion
Description: In order to reduce the particle size in S/W, the additives presented in Table 1 were added to the aqueous phase of the S/O/W emulsion during the preparation of S/W, and the dispersibility of each sample was observed.
(2) Cyclohexane (3.0 mL) was added to (1) to obtain an FITC-DEX-encapsulated S/O.
(3) A PC-ER-290-FITC-DEX complex solid was obtained by freeze drying the S/O/W emulsion prepared by agitating the solution of (2) (0.50 mL), and 5.0 mL of an aqueous solution (containing 2.5 mg/mL PC, and each additive at a concentration of 125 mg/mL) in a 12-mL vial container using a homogenizer.
(4) A 0.1 TE buffer (5.0 mL) was added to (3) to obtain an FITC-DEX-encapsulated S/W.

Row | Structure (SMILES) | dispersibility / particle size of FITC-DEX-encapsulated S/W with additive
1 | OC[C@@H](O)[C@@H](O)[C@H](O)[C@@H](O)CO [sorbitol] | relatively small particle sizes
2 | OC[C@H]1O[C@H](O[C@H]2O[C@H](CO)[C@@H](O)[C@H](O)[C@H]2O)[C@H](O)[C@@H](O)[C@@H]1O [trehalose] | relatively small particle sizes
3 | OCC(O)CO [Glycerine] | relatively small particle sizes
